Measurements from PubChem BioAssay (NCI).
Where “and” joins values, the source holds several entries; their conditions need not be identical. Equal entries are not always repeated.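 Each compound was tested at five concentrations against cells in 96-well plates for 48 hours. GI50 is the concentration that inhibits growth by half. Definition used: TGI = concentration required for complete inhibition of growth.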

Legend:
Experiment in all cases: NCI-60 cell line screen, 48 h
A498 renal = test system: A498 renal
DU-145 prostate = test system: DU-145 prostate
HOP-62 NSCLC = test system: HOP-62 NSCLC
M14 melanoma = test system: M14 melanoma
MDA-MB-231 breast = test system: MDA-MB-231 breast
NCI-H522 lung = test system: NCI-H522 lung
SF-539 CNS = test system: SF-539 CNS
SK-MEL-2 melanoma = test system: SK-MEL-2 melanoma
T-47D breast = test system: T-47D breast
UO-31 renal = test system: UO-31 renal

Row | SMILES | TGI (A498 renal) | TGI (DU-145 prostate) | TGI (HOP-62 NSCLC) | TGI (M14 melanoma) | TGI (MDA-MB-231 breast) | TGI (NCI-H522 lung) | TGI (SF-539 CNS) | TGI (SK-MEL-2 melanoma) | TGI (T-47D breast) | TGI (UO-31 renal) | GI50 (A498 renal) | GI50 (DU-145 prostate) | GI50 (HOP-62 NSCLC) | GI50 (M14 melanoma) | GI50 (MDA-MB-231 breast) | GI50 (NCI-H522 lung) | GI50 (SK-MEL-2 melanoma) | GI50 (T-47D breast) | GI50 (UO-31 renal) | GI50 (SF-539 CNS)
1 | COc1cc2c(cc1OC)C13CCN4C=C5CCOC6CC(=O)N2C1C6C5CC43 (stereo not given) | > 100 µM | > 100 µM | > 100 µM | > 100 µM | > 100 µM | > 100 µM | > 100 µM | > 100 µM | > 100 µM | > 100 µM | – | – | – | – | – | – | – | – | – | –
2 | COc1cccc2c1C(=O)c1c(O)c3c(c(O)c1C2=O)CC(O)(C(C)=O)CC3OC1CC(N)C(O)C(C)O1 (stereo not given) | 0.39 µg/mL | 1.65 µg/mL | 2.08 µg/mL | 0.705 µg/mL | 0.59 µg/mL | 0.287 µg/mL | 0.113 µg/mL | 0.403 µg/mL | 0.216 µg/mL | 5.46 µg/mL | 0.0558 µg/mL | 0.0208 µg/mL | 0.0221 µg/mL | 0.0403 µg/mL | 0.0409 µg/mL | 0.0317 µg/mL | 0.102 µg/mL | 0.0185 µg/mL | 0.26 µg/mL | –
3 | Cn1cc(-c2nonc2-c2c[nH]c3ccccc23)c2ccccc21 | 2.11 µM | 12.7 µM | 17 µM | 12 µM | 3.23 µM | 9.79 µM | 1.07 µM | 14.6 µM | 28.5 µM | 7.65 µM | 0.435 µM | 0.511 µM | 0.47 µM | 0.317 µM | 0.489 µM | 0.366 µM | 0.496 µM | 0.464 µM | 0.323 µM | 0.276 µM
4 | Cc1ccc(NCCCN2CCN(CCCNc3ccc(C)c4sc5ccccc5c(=O)c34)CC2)c2c(=O)c3ccccc3sc12 | > 100 µM | > 100 µM | > 100 µM | > 100 µM | > 100 µM | > 100 µM | > 100 µM | 93.8 µM | > 100 µM | > 100 µM | – | – | – | – | – | – | – | – | – | –
5 | Cc1cc(C)nc(NC(N)=NCCc2ccccc2)n1 | 39 µM | > 100 µM | 53.1 µM | 24.2 µM | 52.8 µM | 65.9 µM | 26.2 µM | > 100 µM | 43.6 µM | 50.8 µM | 5.26 µM | 3.4 µM | 3.16 µM | 2.8 µM | 6.55 µM | 6.02 µM | 12.6 µM | 2.35 µM | 5.54 µM | 2.56 µM
6 | COC(=O)[C@@H](NC(=O)NC(=O)NC(=O)CI)C(C)C | 30.9 µM | 29.9 µM | 33.7 µM | 13.1 µM | 34.9 µM | 3.31 µM | 14.8 µM | 36.5 µM | 34.5 µM | 3.2 µM | 16.7 µM | 16.4 µM | 18.3 µM | 3.34 µM | 17 µM | 1.69 µM | 18.9 µM | 6 µM | 1.67 µM | 3.92 µM
7 | Cc1ccc(C(=O)N(CCCN)[C@@H](c2nc3cc(Cl)ccc3c(=O)n2Cc2ccccc2)C(C)C)cc1 | 1.77 µM and 0.816 µM | – | 2.07 µM and 2.09 µM | < 0.01 µM | 0.233 µM and 0.172 µM | – | 1.38 µM and 0.654 µM | – | 1.98 µM and 1.67 µM | 2.58 µM and 2.27 µM | < 0.01 µM | < 0.01 µM | < 0.01 µM and 0.01 µM | < 0.01 µM | < 0.01 µM | < 0.01 µM | < 0.01 µM | < 0.01 µM | 1.12 µM and 1.02 µM | < 0.01 µM
8 | Nc1ccn(C2OC(CO)C(O)C2F)c(=O)n1 (stereo not given) | > 5000 µM | > 5000 µM | > 5000 µM | > 5000 µM | > 5000 µM | > 5000 µM | > 5000 µM | > 5000 µM | > 5000 µM | > 5000 µM | > 5000 µM | > 5000 µM | > 5000 µM | > 5000 µM | > 5000 µM | 3990 µM | > 5000 µM | > 5000 µM | > 5000 µM | > 5000 µM
9 | CN(C)CCCOc1ccccc1NC1=C(Cl)C(=O)C(Nc2ccccc2OCCCN(C)C)=C(Cl)C1=O | 5.6 µM | 1.77 µM | 3.31 µM | 3.16 µM | 1.4 µM | 0.383 µM | 3.04 µM | 3.58 µM | 0.591 µM | 2.46 µM | 1.84 µM | 0.709 µM | 1.66 µM | 1.6 µM | 0.511 µM | 0.17 µM | 1.83 µM | 0.209 µM | 1.21 µM | 1.66 µM
10 | COc1ccc(C#Cc2ccccc2C#CCCCCO)cc1 | 66.4 µM | 52.6 µM | 45.4 µM | 36.2 µM | 32.2 µM | 34.9 µM | 42.8 µM | 38.9 µM | 43.8 µM | 39.6 µM | 24.1 µM | 21.3 µM | 28.6 µM | 19.4 µM | 17.3 µM | 18.6 µM | 19.8 µM | 22 µM | 21.2 µM | 22.6 µM
11 | COC1=CC(c2ccc[nH]2)=N/C1=C\c1[nH]c(C)c(C(=O)OCc2ccccc2)c1C | 1.02 µM | 1.92 µM | 2.77 µM | 0.817 µM | 0.325 µM | 1.15 µM | 1.54 µM | 0.196 µM | 1.6 µM | 0.336 µM | 0.169 µM | 0.0917 µM | 0.314 µM | 0.0448 µM | 0.0379 µM | 0.0968 µM | 0.0445 µM | 0.252 µM | 0.144 µM | 0.111 µM
12 | CC(C)[C@](O)(c1ccc2cc(OC(F)F)c(OC(F)F)cc2c1)c1cn[nH]n1 | 28.2 µM and 29.2 µM | 45.6 µM and 32 µM | 36.9 µM and 31.5 µM | 42.2 µM and 32.6 µM | 38.9 µM and 28.6 µM | 36.5 µM and 35.4 µM | 32.4 µM and 32.3 µM | 36.6 µM and 35 µM | 53.4 µM and 71.1 µM | 29.1 µM and 30.1 µM | 14.4 µM and 15.4 µM | 19.1 µM and 16.4 µM | 17.2 µM and 15.6 µM | 18.5 µM and 15.4 µM | 20.5 µM and 12.3 µM | 16.4 µM and 14.8 µM | 18.7 µM and 17.1 µM | 3.73 µM and 15.5 µM | 12.8 µM and 12.1 µM | 16.5 µM and 16.2 µM
13 | COc1cccc([C@H]2CC(=O)c3cc4c(cc3N2)OCO4)c1 | > 100 µM | 13.8 µM | > 100 µM | – | > 100 µM | 0.698 µM | – | – | > 100 µM | > 100 µM | 0.265 µM | 0.067 µM | 2.56 µM | 0.0864 µM | 0.716 µM | – | – | – | 0.223 µM | 0.084 µM
